# Results: patent US4238500A, “Cyclic double hemiacetals of enediol compounds and compositions and methods for preparing and using same” (National Foundation for Cancer Research, priority 1979, dated 1980)
# What was measured:
# [1] = test system: viral disease; conditions: cited from earlier work
# [2] = test system: guinea pig ileum; test: Effects on pain receptors: twitch height of coaxially stimulated guinea pig ileum; conditions: Cavia porcellus, read-out: ED50 (50% reduction in twitch height)
# [3] = test system: edema of the rat paw produced by carrageenan; test: Carrageenan-induced edema of the rat paw
# Method: In other experiments, edema of the rat paw was produced by intradermal injection of carrageenan (0.1 ml of 1% solution in saline).
# [4] = test system: capillary permeability produced by serotonin or histamine; test: Increased capillary permeability by intradermal serotonin or histamine (trypan blue) in rats; type: in vivo; conditions: 100 mg/kg i.p. 30 minutes before, serotonin 0.05 μg or histamine 1 μg intradermal
# Method: In one series of tests, rats were treated i.v. with trypan blue and then the increased capillary permeability produced by intradermal injection of serotonin (0.05 μg) or histamine (1 μg) was measured.
# No effect of methylglyoxal-ascorbic acid compound or L-ascorbic acid could be found in this system.
# [5] = test system: glyoxalase enzyme system; conditions: converted by glyoxalase to D-lactic acid in presence of reduced glutathione; cited from earlier work
# [6] = test system: acute myelocytic leukemia; conditions: 13 patients with acute myelocytic leukemia; all then-current therapy 13%; cited from earlier work
# [7] = 199 mg/kg i.p. versus indomethacin 3 mg/kg per os
compound,measurement,setting,value
O=CC(=O)C1CCCCC1 [cyclohexylglyoxal],antiviral activity,[1],have antiviral activity
O=C1O[C@H]([C@@H](O)CO)C(O)=C1O [L-ascorbic acid],IC50,[2],32 mM
same,anti-inflammatory activity (rat paw edema),[3]; 199 mg/kg i.p. 60 minutes prior to carrageenan,somewhat anti-inflammatory
same,activity compared with indomethacin,[3]; [7],far less active than indomethacin
same,ratio of effectiveness (indomethacin versus compound),[3]; [7],approximately 200
same,effect on increased capillary permeability,[4],No effect
CC(=O)C=O [methylglyoxal],IC50,[2],8 mM
same,lability in vivo,[5],extremely labile in vivo
O=CC(=O)Cc1ccccc1 [benzylglyoxal],antiviral activity,[1],have antiviral activity
CC(C=NNC(=N)N)=NNC(=N)N [methylglyoxal bis(guanylhydrazone)],complete remission frequency,[6],69%
